Data on 2 compounds can be found in ChEMBL document CHEMBL1133203, “Synthesis of L-(+)-3-(3-hydroxy-4-pivaloyloxybenzyl)-2,5-diketomorpholine as potential prodrug of L-dopa” (Bioorg Med Chem Lett, 2000).

≈ marks a conversion by molar mass, not a printed value.

Data set [1] is described as follows: Rate constant in chemical and enzymatic hydrolysis to form L-DOPA, in 80% human plasma. It counts as ADME, cell-free.
A short description of data set [2]: Partition coefficient is determined in octanol/buffer solution at pH 7.4. Format: physicochemical.
Data set [3] is described as follows: Rate constant in chemical and enzymatic hydrolysis to form another compound (8)*, in 80% human plasma (experiment 1). Format: ADME, cell-free.
Data set [4] in a line: Half-life in chemical and enzymatic hydrolysis, in buffer at pH 7.4. Format: ADME.
Data set [5] can be described thus: Rate constant in chemical and enzymatic hydrolysis, in buffer at pH 7.4. It counts as ADME.
Data set [6] in a line: Rate constant in chemical and enzymatic hydrolysis, in buffer at pH 1.3. Format: ADME.
The nature of data set [7]: Aqueous solubility was evaluated. It counts as physicochemical. The settings on record: buffer.
The nature of data set [8]: Rate constant in chemical and enzymatic hydrolysis to form another compound (8)*, in 80% human plasma (experiment 2). It counts as ADME, cell-free.
The species entered for the next data set is Rattus norvegicus. Briefly: Rate constant in chemical and enzymatic hydrolysis, in 80% rat plasma. Format: ADME.
A short description of data set [9]: Half-life in chemical and enzymatic hydrolysis, in 80% rat plasma. It counts as ADME.
A short description of data set [10]: Half-life in chemical and enzymatic hydrolysis, in buffer at pH 1.3. Format: ADME.

`O=C1COC(=O)[C@H](Cc2ccc(O)c(O)c2)N1` returned a K obs in data set [1] of 0.0047 min⁻¹.
The compound `CC(C)(C)C(=O)Oc1ccc(C[C@@H]2NC(=O)COC2=O)cc1O` came in with a logD in data set [2] of 2.15. Moreover, the K obs came to 0.019 min⁻¹ in data set [3]; 0.0075 min⁻¹ in [5]; 0.00022 min⁻¹ in data set [6]; 0.019 min⁻¹ in [8]; 0.29 min⁻¹ in the data set filed under Rattus norvegicus. For the same compound, the half-life in [4] stood at 1.55 h; in data set [9], 2.7 min; in data set [10], 52.3 h. The solubility in data set [7] is 50 µg/mL (≈ 156 µM).

A word on the logD: it is lipophilicity at a set pH, counting ionised and neutral species. High values mean higher lipophilicity, low ones lower lipophilicity. As usually defined, the half-life is the time in which the quantity being followed falls by half. A word on the solubility: it is the concentration that dissolves in the medium under given conditions.
